Laboratory results from paper PMC6100347, “Simultaneous Determination of Decursin, Decursinol Angelate, Nodakenin, and Decursinol of Angelica gigas Nakai in Human Plasma by UHPLC-MS/MS: Application to Pharmacokinetic Study” (Molecules : A Journal of Synthetic Chemistry and Natural …, 2018).

Legend:
[1] = Pharmacokinetic study after oral administration of AGN root extract powder in healthy Korean subjects; assay type: in vivo, human; conditions: mean ± SE, n = 10; for CL/F / Vd/F: humans; for CL/F / Vd/F / AUC(0-inf) / Tmax / half-life: single usual oral dose of 4.6 g AGN root extract powder; for CL/F: dose of each coumarin / AUC0–∞; for Vd/F / Cmax / AUC(0-inf) / Tmax / half-life: male; for Vd/F: human, plasma; for Cmax / AUC(0-inf) / Tmax / half-life: human plasma; for Cmax: single usual oral dose of 4.6 g AGN root extract powder (0.055 mg D, 0.184 mg DA, 1.095 mg nodakenin)
Method: Ten healthy male subjects (Korean, 23–25 years, weight of 56.7–86.2 kg, and height of 159.8–188.0 cm) were included for this clinical trial. These subjects were in good health condition prior to this study based on a physical examination, medical history, and laboratory tests. Clinical trial protocol was approved by the Institutional Review Board of Wonkwang Oriental Medicine Hospital, Gwangju, Korea (https://cris.nih.go.kr, no. KCT0001118). This clinical trial was carried out in accordance with the revised Declaration of Helsinki for biomedical research involving human subjects and Guideline for Good Clinical Practice.
All subjects fasted for at least 10 h before drug administration. They continued the fasting for another 4 h. These subjects abstained from consuming alcohol or xanthine-containing foods, or beverages during the study. A usual oral dose of AGN root extract powder was given to each subject with 240 mL of spring water. The usual dose approved by the MFDS was of 4.6 g. It contained 0.055 mg of D, 0.184 mg of DA, and 1.095 mg of nodakenin. Blood samples were taken from the forearm vein before and at 0.25, 0.5, 0.75, 1, 2, 3, 4, 6, 8, 12, and 24 h after oral administration. Samples were transferred to Vacutainer® (10 mL, Becton Dickinson and Company, NJ, USA) tubes and immediately centrifuged (10,000× g, 10 min, 4 °C) to obtain plasma samples. Obtained plasma samples were transferred to polyethylene tubes and stored at −80 °C until analysis.
Plasma concentration–time data were analyzed with non-compartmental method using WinNonlin® software (version 7.0, Pharsight®, Certara™ Company, Princeton, NJ, USA) to obtain pharmacokinetic parameters. The area under the plasma concentration–time curve from zero to time infinity (AUC0–∞) was calculated as AUC0–t + Ct/k, where Ct is was the last measurable concentration. AUC0–t was calculated by linear trapezoidal rule from zero to the last measurable time point. Oral clearance (CL/F) was calculated as dose of each coumarin divided by AUC0–∞, where F was oral bioavailability. The t1/2 was calculated as 0.693/k, where k was terminal rate constant. All results are expressed as mean value ± standard error (mean ± SE, n = 10).

[2] = Published PK study of AGN-based dietary supplement Cogni Q after oral administration in humans; assay type: in vivo, human; conditions: Cogni Q (ref 23) vs 4.6 g AGN root extract powder
Method: PK study of the four coumarins has been reported in several studies. However, presented PK parameters are inconsistent with each other. Of these studies, only one paper has reported a PK study for D, DA, and DOH after oral administration in humans (male, n = 10) for AGN-based dietary supplement Cogni Q (119 mg D and 77 mg DA from four vegicaps). […] Such discrepancies in PK parameters between that study and the current study might be due to differences in dosage and the influence of excipients from different formulations. PKs of nodakenin in humans have not been reported previously.

[3] = Stability in human plasma under various storage conditions (QC samples); assay type: in vitro ADME; conditions: in % (unit assumed); for Stability, Processed Sample (10 °C in Auto Sampler for 24 h): extracted human plasma sample; for Stability, Processed Sample (10 °C in Auto Sampler for 24 h) / Stability, Long-Term (−80 °C for 30 Days) / Stability, Bench-Top (8 h at Room Temperature) / Stability, Freeze-Thaw (3 Cycles): mean ± SD, n = 5; for Stability, Long-Term (−80 °C for 30 Days) / Stability, Bench-Top (8 h at Room Temperature) / Stability, Freeze-Thaw (3 Cycles) / Stability mean values (range over all storage conditions and concentrations): human plasma; for Stability, Bench-Top (8 h at Room Temperature): measured vs initial value; for Stability, Freeze-Thaw (3 Cycles): −80 °C and room temperature; for Stability mean values (range over all storage conditions and concentrations): bench-top, processed sample, freeze-thaw, long-term, low and high QC
Method: Bench-top stability test was conducted by using unextracted QC samples at room temperature for 8 h. Processed sample stability test was carried out by analyzing extracted samples in an auto sampler at 10 °C for 24 h. Freeze–thaw stability was estimated after three frozen and thawing cycles at −80 °C and room temperature on consecutive days. Long-term stability was examined after storing samples at −80 °C for a month. Stability of each coumarin was estimated by comparing the initial value with measured value after the examination (n = 5). The sample was considered stable if each value was less than 15% and all value of data expressed as mean ± standard deviation (mean ± SD).

CL/F [1] | Vd/F [1] | Cmax [1] | AUC(0-inf) [1] | Tmax [1] | half-life [1] | t1/2 of published study relative to t1/2 of this study (times longer) [2] | Stability, Processed Sample (10 °C in Auto Sampler for 24 h) ([3]; nominal conc. 0.15 ng/mL) | Stability, Processed Sample (10 °C in Auto Sampler for 24 h) ([3]; nominal conc. 40 ng/mL) | Stability, Long-Term (−80 °C for 30 Days) ([3]; nominal conc. 0.15 ng/mL) | Stability, Bench-Top (8 h at Room Temperature) ([3]; nominal conc. 0.15 ng/mL) | Stability, Freeze-Thaw (3 Cycles) ([3]; nominal conc. 0.15 ng/mL) | Stability, Long-Term (−80 °C for 30 Days) ([3]; nominal conc. 40 ng/mL) | Stability, Bench-Top (8 h at Room Temperature) ([3]; nominal conc. 40 ng/mL) | Stability, Freeze-Thaw (3 Cycles) ([3]; nominal conc. 40 ng/mL) | Stability mean values (range over all storage conditions and concentrations) [3] | SMILES
12.00 ± 1.97 L/h | 60 ± 7.3 L | 7.72 ± 0.84 ng/mL | 19.6 ± 3.71 ng·h/mL | 18.6 ± 2.4 min | 242 ± 38.4 min | ~3.7 times | 111.85 ± 12.49 | 103.88 ± 3.51 | 106.20 ± 9.09 | 108.58 ± 10.18 | 103.55 ± 8.34 | 99.35 ± 4.17 | 107.87 ± 4.07 | 100.75 ± 4.12 | 99.35–111.85 | C/C=C(/C)C(=O)O[C@H]1Cc2cc3ccc(=O)oc3cc2OC1(C)C [DA, decursinol angelate]
622.29 ± 159.24 L/h | 2800 ± 420 L | 0.95 ± 0.17 ng/mL | 3.11 ± 0.8 ng·h/mL | 40.2 ± 2.4 min | 377 ± 148 min | – | 107.70 ± 9.77 | 103.17 ± 10.19 | 111.62 ± 8.13 | 101.43 ± 7.53 | 103.49 ± 8.40 | 101.90 ± 9.83 | 107.91 ± 6.81 | 104.79 ± 12.76 | 101.43–111.62 | CC(C)(O[C@@H]1O[C@H](CO)[C@@H](O)[C@H](O)[C@H]1O)[C@H]1Cc2cc3ccc(=O)oc3cc2O1 [Nodakenin, nodakenin]
3.11 ± 0.42 L/h | 11.9 ± 1.5 L | 11.9 ± 1.43 ng/mL | 22.3 ± 5.04 ng·h/mL | 26.4 ± 3 min | 182 ± 31.2 min | about 5.84 times | 100.34 ± 9.38 | 108.94 ± 11.50 | 105.00 ± 9.02 | 101.91 ± 3.91 | 96.54 ± 10.95 | 102.26 ± 10.17 | 108.71 ± 14.16 | 102.80 ± 12.88 | 96.54–108.94 | CC(C)=CC(=O)O[C@H]1Cc2cc3ccc(=O)oc3cc2OC1(C)C [D, decursin]
– | – | 0.92 ± 0.16 ng/mL | 2.43 ± 0.45 ng·h/mL | 38.4 ± 3.6 min | 157 ± 30 min | ~2.5 times | 102.43 ± 5.27 | 104.77 ± 2.48 | 87.35 ± 9.60 | 89.75 ± 11.39 | 92.06 ± 2.28 | 106.93 ± 11.89 | 101.81 ± 7.72 | 104.29 ± 9.30 | 87.35–106.93 | CC1(C)Oc2cc3oc(=O)ccc3cc2C[C@@H]1O [DOH, decursinol]
